What was measured:
Experiment in all cases: relative viability (nuclei count vs DMSO), 5 days (fraction); higher = more cells survive
A-427 = tested on: A-427
How it was run: (§1)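 Lung cancer cell lines, seeded in 1536-well plates, were treated the following day by pin tool with a single drug or with five library-drug doses (not always all listed) in √10 steps on top of a fixed anchor-drug dose. Cells were fixed and nuclei stained in one step after 5 days, and nuclei were counted. Relative viability is the nuclei count for treated wells divided by that for vehicle wells, reported as medians of duplicate plates.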

ABC-1 = tested on: ABC-1
How it was run: as §1

EPLC-272H = tested on: EPLC-272H
How it was run: as §1

HCC-15 = tested on: HCC-15
How it was run: as §1

LC-2-ad = tested on: LC-2-ad
How it was run: as §1

LK-2 = tested on: LK-2
How it was run: as §1

NCI-H1734 = tested on: NCI-H1734
How it was run: as §1

NCI-H1793 = tested on: NCI-H1793
How it was run: as §1

NCI-H1915 = tested on: NCI-H1915
How it was run: as §1

NCI-H1944 = tested on: NCI-H1944
How it was run: as §1

NCI-H2009 = tested on: NCI-H2009
How it was run: as §1

NCI-H2023 = tested on: NCI-H2023
How it was run: as §1

`Cc1cn(-c2cc(NC(=O)c3ccc(C)c(Nc4nccc(-c5cccnc5)n4)c3)cc(C(F)(F)F)c2)cn1` [Nilotinib] + CCNC(=O)c1noc(-c2cc(C(C)C)c(O)cc2O)c1-c1ccc(CN2CCOCC2)cc1 [Luminespib] (partner 0.01 µM) showed a relative viability (A-427; first compound 0.001 µM) of 0.98, a relative viability (A-427; first compound 0.003162 µM) of 0.948 and a relative viability (A-427; first compound 0.03162 µM) of 0.724. The relative viability (A-427; first compound 0.1 µM) was 0.336, the relative viability (ABC-1; first compound 0.001 µM) was 0.508 and the relative viability (ABC-1; first compound 0.003162 µM) was 0.227. For the same compound, the relative viability (ABC-1; first compound 0.01 µM) was 0.554, the relative viability (ABC-1; first compound 0.03162 µM) was 1.28 and the relative viability (ABC-1; first compound 0.1 µM) was 0.252. The relative viability (EPLC-272H; first compound 0.001 µM) was 0.134, the relative viability (EPLC-272H; first compound 0.003162 µM) was 0.205 and the relative viability (EPLC-272H; first compound 0.01 µM) was 0.277. It also gave a relative viability (EPLC-272H; first compound 0.03162 µM) of 0.265, a relative viability (EPLC-272H; first compound 0.1 µM) of 0.175 and a relative viability (HCC-15; first compound 0.001 µM) of 0.241. For the same compound, the relative viability (HCC-15; first compound 0.003162 µM) was 0.431, the relative viability (HCC-15; first compound 0.01 µM) was 0.486 and the relative viability (HCC-15; first compound 0.03162 µM) was 0.219. For the same compound, the relative viability (HCC-15; first compound 0.1 µM) was 0.325, the relative viability (LC-2-ad; first compound 0.001 µM) was 0.85 and the relative viability (LC-2-ad; first compound 0.003162 µM) was 1.15. The relative viability (LC-2-ad; first compound 0.01 µM) was 1.21, the relative viability (LC-2-ad; first compound 0.03162 µM) was 0.947 and the relative viability (LC-2-ad; first compound 0.1 µM) was 0.8. The relative viability (LK-2; first compound 0.003162 µM) was 0.139, the relative viability (LK-2; first compound 0.01 µM) was 0.207 and the relative viability (LK-2; first compound 0.03162 µM) was 0.196. The relative viability (LK-2; first compound 0.1 µM) was 0.182, the relative viability (NCI-H1734; first compound 0.001 µM) was 0.174 and the relative viability (NCI-H1734; first compound 0.003162 µM) was 0.168. The relative viability (NCI-H1734; first compound 0.01 µM) was 0.208, the relative viability (NCI-H1734; first compound 0.03162 µM) was 0.183 and the relative viability (NCI-H1734; first compound 0.1 µM) was 0.169. The relative viability (NCI-H1793; first compound 0.001 µM) was 0.158, the relative viability (NCI-H1793; first compound 0.003162 µM) was 0.162 and the relative viability (NCI-H1793; first compound 0.01 µM) was 0.195. For the same compound, the relative viability (NCI-H1793; first compound 0.03162 µM) was 0.168, the relative viability (NCI-H1793; first compound 0.1 µM) was 0.166 and the relative viability (NCI-H1915; first compound 0.001 µM) was 0.713. It also gave a relative viability (NCI-H1915; first compound 0.003162 µM) of 0.896, a relative viability (NCI-H1915; first compound 0.01 µM) of 1.41 and a relative viability (NCI-H1915; first compound 0.03162 µM) of 0.553. It also gave a relative viability (NCI-H1915; first compound 0.1 µM) of 0.759, a relative viability (NCI-H1944; first compound 0.001 µM) of 0.627 and a relative viability (NCI-H1944; first compound 0.003162 µM) of 0.669. It also gave a relative viability (NCI-H1944; first compound 0.01 µM) of 0.669, a relative viability (NCI-H1944; first compound 0.03162 µM) of 0.694 and a relative viability (NCI-H2009; first compound 0.001 µM) of 0.886. The relative viability (NCI-H2009; first compound 0.003162 µM) was 1.14, the relative viability (NCI-H2009; first compound 0.01 µM) was 1.16 and the relative viability (NCI-H2009; first compound 0.03162 µM) was 0.955. For the same compound, the relative viability (NCI-H2009; first compound 0.1 µM) was 1.12, the relative viability (NCI-H2023; first compound 0.001 µM) was 0.854 and the relative viability (NCI-H2023; first compound 0.003162 µM) was 0.89. For the same compound, the relative viability (NCI-H2023; first compound 0.01 µM) was 0.99.

From the supplement of paper PMC10307832
